According to patent US11596639B2, “Substituted indole Mcl-1 inhibitors” (Vanderbilt University, priority 2016, dated 2023):
Like-named read-outs stand apart in the source and are kept apart here.

Legend:
Mcl-1 = Mcl-1 (Homo sapiens (Human), UniProt Q07820); experiment: Fluorescence polarization anisotropy (FPA) competition assay, FITC-Bak or FITC-Bim BH3 peptide; type: binding; conditions: read-out: Ki for Inhibition of Mcl-1 by FPA assay
[1] = test system: H929 human cancer cell lines; experiment: Cellular viability / proliferation (Cell TiterGlo, 72 h); type: cell-based
In short: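 Cells were seeded at 1,000 cells/well in medium with 10% FBS and dosed 24 h later with a 2-fold serial dilution of compound (top concentration 50 μM, final DMSO <1%).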

[2] = Homo sapiens, NCI-H929, 72 h, read-out: GI50 on cellular proliferation of H929 human cancer cell lines, H929 cells, 72 h, Cell TiterGlo, 10% FBS
[3] = read-out: GI50 on cellular proliferation of H929 human cancer cell lines, H929 cells, 72 h, Cell TiterGlo, 10% FBS
[4] = H929 cells, 72 h, Cell TiterGlo, 10% FBS, read-out: GI50 on cellular proliferation of H929 human cancer cell lines

Sequence of Mcl-1 (Q07820 172-327): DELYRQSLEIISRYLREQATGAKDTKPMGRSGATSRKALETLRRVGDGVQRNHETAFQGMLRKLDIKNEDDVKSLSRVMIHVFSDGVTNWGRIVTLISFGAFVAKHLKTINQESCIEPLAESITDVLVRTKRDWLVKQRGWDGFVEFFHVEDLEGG

Structure (SMILES)	Ki (Mcl-1)	GI50 [1, 2]	GI50 [1, 3]	GI50 [1, 4]
Cc1cc(OCCCc2c3n(c4c(-c5c(C)nn(C)c5C)c(Cl)ccc24)[C@H](C)CN(c2cccc4c(C(=O)O)n(C)nc24)C3=O)cc(C)c1Cl [Example 54, (R)-7-(7-chloro-10-(3-(4-chloro-3,5-dimethylphenoxy)propyl)-4-methyl-1-oxo-6-(1,3,5-trimethyl-1H-pyrazol-4-yl)-3,4-dihydropyrazino[1,2-a]indol-2(1H)-yl)-2-methyl-2H-indazole-3-carboxylic acid]	< 1 nM	320 nM	–	–
Cc1cc(OCCCc2c3n(c4c(-c5c(C)ncnc5C)c(Cl)ccc24)[C@H](C)CN(c2cccc4cc(C(N)=O)n(C)c24)C3=O)cc(C)c1Cl [Example 384, (R)-7-(7-Chloro-10-(3-(4-chloro-3,5-dimethylphenoxy)propyl)-6-(4,6-dimethylpyrimidin-5-yl)-4-methyl-1-oxo-3,4-dihydropyrazino[1,2-a]indol-2(1H)-yl)-1-methyl-1H-indole-2-carboxamide]	6.8 nM	910 nM	–	–
Cc1cc(OCCCc2c3n(c4c(-c5c(C)nn(C)c5C)c(Cl)ccc24)[C@H](C)CN(c2cn(CCC4CCOCC4)c4ccc(C(=O)O)cc24)C3=O)cc(C)c1Cl [Example 240, (R)-3-(7-Chloro-10-(3-(4-chloro-3,5-dimethylphenoxy)propyl)-4-methyl-1-oxo-6-(1,3,5-trimethyl-1H-pyrazol-4-yl)-3,4-dihydropyrazino[1,2-a]indol-2(1H)-yl)-1-(2-(tetrahydro-2H-pyran-4-yl)ethyl)-1H-indole-5-carboxylic acid]	< 1 nM	1900 nM	–	–
Cc1cc(OCCCc2c3n(c4c(-c5c(C)ncnc5C)c(Cl)ccc24)CCCN(c2cccc4c(C(=O)O)cccc24)C3=O)cc(C)c1Cl [Example 151, 5-[8-Chloro-11-[3-(4-chloro-3,5-dimethyl-phenoxy)propyl]-7-(4,6-dimethylpyrimidin-5-yl)-1-oxo-4,5-dihydro-3H-[1,4]diazepino[1,2-a]indol-2-yl]naphthalene-1-carboxylic acid]	< 1 nM	2100 nM	–	–
Cc1cc(OCCCc2c3n(c4c(-c5c(C)ncnc5C)c(Cl)ccc24)CCCN(c2ccnc4ccc(C(=O)O)cc24)C3=O)cc(C)c1Cl [Example 220, 4-[8-Chloro-11-[3-(4-chloro-3,5-dimethyl-phenoxy)propyl]-7-(4,6-dimethylpyrimidin-5-yl)-1-oxo-4,5-dihydro-3H-[1,4]diazepino[1,2-a]indol-2-yl]quinoline-6-carboxylic acid]	< 1 nM	2000 nM	–	–
Cc1cc(OCCCc2c3n(c4c(-c5c(C)nn(CC(=O)O)c5C)c(Cl)ccc24)CCCN(c2cccc4cccnc24)C3=O)cc(C)c1Cl [Example 144, 2-(4-(8-Chloro-11-(3-(4-chloro-3,5-dimethylphenoxy)propyl)-1-oxo-2-(quinolin-8-yl)-2,3,4,5-tetrahydro-1H-[1,4]diazepino[1,2-a]indol-7-yl)-3,5-dimethyl-1H-pyrazol-1-yl)acetic acid]	< 1 nM	6500 nM	–	–
Cc1cc(OCCCc2c3n(c4c(-c5c(C)nn(C)c5C)c(Cl)ccc24)[C@H](C)CN(c2cccc4cc(C(=O)O)n(CC5CCO5)c24)C3=O)cc(C)c1Cl (stereo partly drawn) [Example 374, 7-((R)-7-Chloro-10-(3-(4-chloro-3,5-dimethylphenoxy)propyl)-4-methyl-1-oxo-6-(1,3,5-trimethyl-1H-pyrazol-4-yl)-3,4-dihydropyrazino[1,2-a]indol-2(1H)-yl)-1-(oxetan-2-ylmethyl)-1H-indole-2-carboxylic acid]	3.7 nM	1500 nM	–	–
Cc1cc(OCCCc2c3n(c4c(-c5c(C)nn(C)c5C)c(Cl)ccc24)[C@H](C)CN(c2ccc4c(C(=O)O)cn(C)c4c2)C3=O)cc(C)c1Cl [Example 79, (R)-6-(7-Chloro-10-(3-(4-chloro-3,5-dimethylphenoxy)propyl)-4-methyl-1-oxo-6-(1,3,5-trimethyl-1H-pyrazol-4-yl)-3,4-dihydropyrazino[1,2-a]indol-2(1H)-yl)-1-methyl-1H-indole-3-carboxylic acid]	< 1 nM	1500 nM	–	–
Cc1cc(OCCCc2c3n(c4c(-c5c(C)nn(C)c5C)c(Cl)ccc24)[C@H](C)CN(c2cccc4cc(C(N)=O)n(C)c24)C3=O)cc(C)c1Cl [Example 270, 7-[(4R)-7-chloro-10-[3-(4-chloro-3,5-dimethyl-phenoxy)propyl]-4-methyl-1-oxo-6-(1,3,5-trimethylpyrazol-4-yl)-3,4-dihydropyrazino[1,2-a]indol-2-yl]-1-methyl-indole-2-carboxamide]	1.1 nM	–	310 nM	–
Cc1cc(OCCCc2c3n(c4c(-c5c(C)nn(C)c5C)c(Cl)ccc24)[C@H](C)CN(c2cccc4nn(C)c(C(=O)O)c24)C3=O)cc(C)c1Cl [Example 132, 4-[(4R)-7-chloro-10-[3-(4-chloro-3,5-dimethyl-phenoxy)propyl]-4-methyl-1-oxo-6-(1,3,5-trimethylpyrazol-4-yl)-3,4-dihydropyrazino[1,2-a]indol-2-yl]-2-methyl-indazole-3-carboxylic acid]	< 1 nM	840 nM	–	–
Cc1cc(OCCCc2c3n(c4c(-c5c(C)nn(C)c5C)c(Cl)ccc24)[C@H](C)CN(c2cc(OCC4CCN(C)C4)cc4c2cc(C(=O)O)n4C)C3=O)cc(C)c1Cl (some centres unmarked) [Example 331, 4-((M, R)-7-Chloro-10-(3-(4-chloro-3,5-dimethylphenoxy)propyl)-4-methyl-1-oxo-6-(1,3,5-trimethyl-1H-pyrazol-4-yl)-3,4-dihydropyrazino[1,2-a]indol-2(1H)-yl)-1-methyl-6-((1-methylpyrrolidin-3-yl)methoxy)-1H-indole-2-carboxylic acid]	1.1 nM	–	–	2300 nM
Cc1cc(OCCCc2c3n(c4c(-c5c(C)nn(C)c5C)c(Cl)ccc24)CCCN(c2cccc4c(C(=O)O)n(C)nc24)C3=O)cc(C)c1Cl [Example 16, 7-[8-Chloro-11-[3-(4-chloro-3,5-dimethyl-phenoxy)propyl]-1-oxo-7-(1,3,5-trimethylpyrazol-4-yl)-4,5-dihydro-3H-[1,4]diazepino[1,2-a]indol-2-yl]-2-methyl-indazole-3-carboxylic acid]	< 1 nM	2900 nM	–	–
Cc1cc(OCCCc2c3n(c4c(-c5c(C)nn(C)c5C)c(Cl)ccc24)[C@H](C)CN(c2cc(C(=O)O)c4cnn(CCN5CCOCC5)c4c2)C3=O)cc(C)c1Cl [Example 56, (R)-6-(7-chloro-10-(3-(4-chloro-3,5-dimethylphenoxy)propyl)-4-methyl-1-oxo-6-(1,3,5-trimethyl-1H-pyrazol-4-yl)-3,4-dihydropyrazino[1,2-a]indol-2(1H)-yl)-1-(2-morpholinoethyl)-1H-indazole-4-carboxylic acid]	< 1 nM	810 nM	–	–
Cc1cc(OCCCc2c3n(c4c(-c5c(C)nn(C)c5C)c(Cl)ccc24)[C@H](C)CN(c2cc(C(C)C)cc4cc(C(=O)O)n(Cc5ccccn5)c24)C3=O)cc(C)c1Cl [Example 359, (R)-7-(7-Chloro-10-(3-(4-chloro-3,5-dimethylphenoxy)propyl)-4-methyl-1-oxo-6-(1,3,5-trimethyl-1H-pyrazol-4-yl)-3,4-dihydropyrazino[1,2-a]indol-2(1H)-yl)-5-isopropyl-1-(pyridin-2-ylmethyl)-1H-indole-2-carboxylic acid]	1.4 nM	290 nM	–	–
CCn1ccc2c(C(=O)O)cc(N3C[C@@H](C)n4c(c(CCCOc5cc(C)c(Cl)c(C)c5)c5ccc(Cl)c(-c6c(C)nn(C)c6C)c54)C3=O)cc21 [Example 99, (R)-6-(7-chloro-10-(3-(4-chloro-3,5-dimethylphenoxy)propyl)-4-methyl-1-oxo-6-(1,3,5-trimethyl-1H-pyrazol-4-yl)-3,4-dihydropyrazino[1,2-a]indol-2(1H)-yl)-1-ethyl-1H-indole-4-carboxylic acid]	< 1 nM	–	–	2100 nM
Cc1cc(N2C[C@@H](C)n3c(c(CCCOc4cc(C)c(Cl)c(C)c4)c4ccc(Cl)c(-c5c(C)nn(C)c5C)c43)C2=O)c2c(c1)cc(C(N)=O)n2Cc1ccccn1 [Example 415, (R)-7-(7-Chloro-10-(3-(4-chloro-3,5-dimethylphenoxy)propyl)-4-methyl-1-oxo-6-(1,3,5-trimethyl-1H-pyrazol-4-yl)-3,4-dihydropyrazino[1,2-a]indol-2(1H)-yl)-5-methyl-1-(pyridin-2-ylmethyl)-1H-indole-2-carboxamide]	3.4 nM	510 nM	–	–
Cc1cc(OCCCc2c3n(c4c(-c5c(C)nn(C)c5C)c(Cl)ccc24)[C@H](C)CN(c2cn(C)c4ccc(S(=O)(=O)N5CCN(C)CC5)cc24)C3=O)cc(C)c1Cl [Example 274, (R)-7-chloro-10-(3-(4-chloro-3,5-dimethylphenoxy)propyl)-4-methyl-2-(1-methyl-5-((4-methylpiperazin-1-yl)sulfonyl)-1H-indol-3-yl)-6-(1,3,5-trimethyl-1H-pyrazol-4-yl)-3,4-dihydropyrazino[1,2-a]indol-1(2H)-one]	4.8 nM	2200 nM	–	–
Cc1cc(OCCCc2c3n(c4c(-c5c(C)ncnc5C)c(Cl)ccc24)[C@H](C)CN(c2cccc4c(C(=O)O)ccnc24)C3=O)cc(C)c1Cl [Example 225, 8-[(4R)-7-chloro-10-[3-(4-chloro-3,5-dimethyl-phenoxy)propyl]-6-(4,6-dimethylpyrimidin-5-yl)-4-methyl-1-oxo-3,4-dihydropyrazino[1,2-a]indol-2-yl]quinoline-4-carboxylic acid]	< 1 nM	3300 nM	–	–
Cc1cc(OCCCc2c3n(c4c(-c5c(C)nn(C)c5C)c(Cl)ccc24)[C@H](C)CN(c2nn(C)c4cccc(C(=O)O)c24)C3=O)cc(C)c1Cl [Example 175, (R)-3-(7-Chloro-10-(3-(4-chloro-3,5-dimethylphenoxy)propyl)-4-methyl-1-oxo-6-(1,3,5-trimethyl-1H-pyrazol-4-yl)-3,4-dihydropyrazino[1,2-a]indol-2(1H)-yl)-1-methyl-1H-indazole-4-carboxylic acid]	< 1 nM	–	340 nM	–
